Consider one substance from patent US20040043483A1, “Novel tolerogenic dendritic cells and therapeutic uses therefor” (priority 2002, published 2004).

The test system of this test is C3H spleen T cells. As to the kind of experiment: One-way mixed leukocyte reaction (MLR), allostimulatory capacity by [3H]TdR uptake. The test is classed as cell-based, mouse. To be noted: zVAD-fmk 100 μM added at the beginning of 3-day MLR. Here is the method: Mixed leukocyte reaction (MLR). To determine the allostimulatory capacity of DCs, one-way MLR were performed with γ-irradiated (20 Gy) DCs or spleen cells from B10 (allogeneic) or C3H (syngeneic) mice as stimulators and nylon wool-purified C3H spleen T cells (2×105) as responders. Cultures (200 μl) were established in triplicate in 96-well round-bottom microculture plates and maintained in complete medium in 5% CO2 in air at 37° C. for 3-4 days. [^3H]TdR (1 μCi/well) was added for the final 18 h of culture, and incorporation of [^3H]TdR into DNA was assessed by liquid scintillation counting in an automated counter. Results are expressed as mean cpm±1 SD. In apoptosis inhibition experiments, a common caspase inhibitor peptide, benzyloxycarbonyl-Val Ala-Asp-fluoromethyl ketone (zVAD-fmk; Alexis, San Diego, Calif.), was added (100 μM) at the beginning of the MLR culture. DMSO served as a control.
Allostimulatory capacity of liver-derived DEC205^+B220^+CD19^−cells. The allostimulatory capacity of DEC205^+, B220^+, CD19^−cells derived from B 10 liver NPCs was determined in a one-way MLR, performed as described above. […] Despite the high expression of MHC and costimulatory molecules, liver-derived DEC205^+B220^+CD19^−cells display low allostimulatory capacity.

For the substance “benzyloxycarbonyl-Val Ala-Asp-fluoromethyl ketone [zVAD-fmk]”, the “T cell proliferation induced by liver-derived DEC205+B220+CD19− cells after caspase inhibition” value is on record as “restored T cell proliferation”.
